Target: T1, DCAF1 WD40 domain (residues 1077-1390) (Homo sapiens, UniProt Q9Y4B6)
T1 construct: DCAF1 WD40 domain (residues 1077-1390)
Test: DCAF1 binding assay by SPR (Biacore 8K+), DCAF1-3 KD
Details: 25 °C, read-out: DCAF1-3 SPR (KD)

T1 sequence (Q9Y4B6 1077-1390): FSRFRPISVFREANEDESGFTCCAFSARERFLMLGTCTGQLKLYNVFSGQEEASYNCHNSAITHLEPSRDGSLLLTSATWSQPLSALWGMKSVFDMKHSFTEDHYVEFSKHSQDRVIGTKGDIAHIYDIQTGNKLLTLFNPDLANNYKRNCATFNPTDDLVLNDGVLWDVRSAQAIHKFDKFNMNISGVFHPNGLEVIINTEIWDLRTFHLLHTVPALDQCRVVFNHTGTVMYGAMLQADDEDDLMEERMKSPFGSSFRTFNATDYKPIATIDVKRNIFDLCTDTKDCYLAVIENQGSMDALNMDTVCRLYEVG

## Cc1cccc(F)c1-c1[nH]ncc1C(=O)N[C@H](CC(N)=O)c1cc(Cl)cc(Cl)c1 [I-736]
  Kd: < 10 µM

## NC(=O)C[C@H](NC(=O)c1cn[nH]c1-c1cc(CC(=O)O)ccc1F)c1cccc(Cl)c1 [I-285]
  Kd: 100 to 200 µM

## NCCc1cccc(N2CCC[C@@H](Nc3cc(N4CCOCC4)ccn3)C2)c1 [I-865]
  Kd: > 200 µM

## C[C@H]1CC[C@@H](c2[nH]ncc2C(=O)N[C@@H](CC(N)=O)c2cccc(Cl)c2)CC1 [I-742]
  Kd: < 10 µM

## Fc1cccc(N2CCC[C@H](N3CCc4c(N5CC6CC(C6)C5)ccnc43)C2)c1 [I-840]
  Kd: > 200 µM

## NCC1CC[C@@H](Nc2cc(N3CCCCC3)ccn2)CN1c1cccc(F)c1 (stereo partly drawn) [I-1019]
  Kd: 10 to 100 µM

## Fc1cccc(N2CCC[C@H]3[C@@H]2CCN3c2cc(N3CC4CCC(C4)C3)ccn2)c1 [I-605]
  Kd: 10 to 100 µM

## NC(=O)[C@H]1C[C@@H](Nc2cc(N3CCCCC3)ccn2)CN(c2cccc(F)c2)C1 [I-1032]
  Kd: 10 to 100 µM

## CNC(=O)C[C@H](NC(=O)c1cn[nH]c1-c1ccccc1F)c1cccc(Cl)c1 [I-79]
  Kd: 10 to 100 µM

## COCCOCC[C@H]1CCCN(c2ccnc(N3CC[C@H]4[C@@H]3CCCN4c3cccc(F)c3)c2)C1 [I-715]
  Kd: < 10 µM

## NC(=O)C[C@H](NC(=O)c1cn[nH]c1-c1ccccc1F)c1ccc(O)cc1 [I-130]
  Kd: > 200 µM

## c1ccc(Cn2ccc3c(N4CCC[C@@H](Nc5cc(N6CCOCC6)ccn5)C4)ncnc32)cc1 [I-680]
  Kd: 100 to 200 µM

## NCCOCCOCCOCCC1CCN(c2ccnc(N3CC[C@@H]4[C@H]3CCCN4c3cccc(F)c3)c2)CC1 [I-649]
  Kd: < 10 µM

## C=CC(=O)NCC1CCN(c2ccnc(N3CC[C@H]4[C@@H]3CCCN4c3cccc(F)c3)c2)CC1 [I-671]
  Kd: < 10 µM

## Oc1cccc(N2CCC[C@@H](Nc3cc(N4CCOCC4)ncn3)C2)c1 [I-13]
  Kd: > 200 µM

## Cc1c(F)ccc(F)c1-c1c(C(=O)N[C@@H](CC(N)=O)c2cccc(Cl)c2)c[nH]c1C#N [I-798]
  Kd: < 10 µM

## NCCOCCOCCOCCOCCCc1ccc(C(=O)c2[nH]cc(C(=O)N[C@@H](CC(N)=O)c3cccc(Cl)c3)c2-c2c(F)ccc(F)c2F)cc1 [I-791]
  Kd: < 10 µM

## CS(=O)(=O)Cc1ccc(F)c(-c2[nH]ncc2C(=O)N[C@@H](CC(N)=O)c2cccc(Cl)c2)c1 [I-246]
  Kd: > 200 µM

## COCCOCCc1[nH]cc(C(=O)N[C@@H](CC(N)=O)c2cccc(Cl)c2)c1-c1ccccc1F [I-557]
  Kd: < 10 µM

## CC(C)n1cc(C(=O)N[C@@H](CC(N)=O)c2cccc(Cl)c2)c(-c2ccccc2F)n1 [I-138]
  Kd: 10 to 100 µM

## NC(=O)C[C@@]1(NC(=O)c2c[nH]nc2-c2ccccc2F)CCCc2cc(Cl)ccc21 [I-241]
  Kd: > 200 µM

## COCCc1[nH]nc(C(=O)N[C@@H](CC(N)=O)c2cccc(Cl)c2)c1-c1ccccc1F [I-330]
  Kd: > 200 µM

## Cc1c(F)c(Cl)cc(F)c1-c1[nH]ncc1C(=O)N[C@@H](CC(N)=O)c1cccc(Cl)c1 [I-1043]
  Kd: < 10 µM

## Cc1sc2c(c1C)C(c1ccc(Cl)cc1)=N[C@@H](CC(=O)NCCOCCOCCOCCOCCOCCn1ncc(C(=O)N[C@@H](CC(N)=O)c3cccc(Cl)c3)c1-c1ccccc1F)c1nnc(C)n1-2 [I-487]
  Kd: > 200 µM

## NC(=O)C[C@H](NC(=O)c1cn[nH]c1[C@@H]1CCCOC1)c1cccc(Cl)c1 [I-346]
  Kd: > 200 µM

## Clc1cc(N2CCC[C@@H](Nc3cc(N4CCOCC4)ccn3)C2)nc(C2CC2)n1 [I-679]
  Kd: > 200 µM

## OCCc1cccc(N2CCC[C@@H](Nc3cc(N4CCOCC4)ccn3)C2)c1 [I-861]
  Kd: 10 to 100 µM

## Fc1cccc(N2CC(Nc3cc(N4CCOCC4)ncn3)C2)c1 [I-218]
  Kd: > 200 µM

## C=CC(=O)N1CCC[C@H](c2n[nH]cc2C(=O)N[C@@H](CC(N)=O)c2cccc(Cl)c2)C1 [I-483]
  Kd: > 200 µM

## NC(=O)C[C@H](NC(=O)c1ccc(-c2nc(C3CC3)n[nH]2)cc1)c1cccc(Cl)c1 [I-439]
  Kd: > 200 µM

## CN(C)C(=O)c1cccnc1N1CCC[C@@H](Nc2cc(N3CCOCC3)ccn2)C1 [I-784]
  Kd: > 200 µM

## COc1ccc(C(=O)c2[nH]cc(C(=O)N[C@@H](CC(N)=O)c3cccc(Cl)c3)c2-c2c(F)ccc(F)c2C)cc1 [I-810]
  Kd: < 10 µM

## Fc1ccc(N2CCC[C@@H](Nc3cc(N4CCOCC4)ccn3)C2)cc1F [I-74]
  Kd: 10 to 100 µM

## COc1cc(N2CCC[C@@H](Nc3cc(N4CCOCC4)ccn3)C2)cnc1CO [I-854]
  Kd: 10 to 100 µM

## Fc1cccc(N2CCC[C@@H](N3CCCc4c(N5CCOCC5)ccnc43)C2)c1 [I-197]
  Kd: > 200 µM

## Fc1cccc(N2CCC[C@@H]3[C@H]2CCN3c2cc(N3CCCCCC3)ccn2)c1 [I-635]
  Kd: 10 to 100 µM

## Cc1ccccc1-c1[nH]ncc1C(=O)N[C@@H](CC(N)=O)c1cccc(Cl)c1 [I-209]
  Kd: > 200 µM

## Cc1c(F)ccc(F)c1-c1c(C(=O)N[C@@H](CC(N)=O)c2cccc(Cl)c2)cn(C)c1C(=O)c1ccc(OCCOCCOCCOCCOCCN)cc1 [I-1017]
  Kd: < 10 µM

## Cc1cc(N2CCC[C@@H](Nc3cc(N4CCOCC4)ccn3)C2)cnc1OC(C)C [I-428]
  Kd: > 200 µM

## Fc1cccc(N2CCC[C@@H](Nc3nccc(N4CCNCC4)n3)C2)c1 [I-314]
  Kd: > 200 µM

## CC(C(N)=O)[C@H](NC(=O)c1cn[nH]c1-c1ccccc1F)c1cccc(Cl)c1 (stereo partly drawn) [I-141]
  Kd: > 200 µM

## Fc1cccc(N2CCC[C@@H](N(c3cccnc3)c3cc(N4CCOCC4)ccn3)C2)c1 [I-306]
  Kd: > 200 µM

## C[C@@H]1CCCCN1c1ccnc(N[C@@H]2CCCN(c3cccc(F)c3)C2)c1 [I-568]
  Kd: < 10 µM

## C=CC(=O)NC1CCC(c2n[nH]cc2C(=O)N[C@@H](CC(N)=O)c2cccc(Cl)c2)CC1 (stereo partly drawn) [I-470]
  Kd: > 200 µM

## Cc1nc(N2CCC[C@@H](Nc3cc(N4CCOCC4)ccn3)C2)ccc1CO [I-432]
  Kd: > 200 µM

## Fc1cccc(N2CCC[C@@H](Nc3cc(N4CCCCC4)ccn3)C2)c1 [I-503]
  Kd: < 10 µM

## Cc1sc2c(c1C)C(c1ccccc1)=N[C@@H](CC(=O)NCCOCCOCCOCCOCCOCCOCCn1cc(C(=O)N[C@@H](CC(N)=O)c3cccc(Cl)c3)c(-c3ccccc3F)n1)c1nnc(C)n1-2 [I-493]
  Kd: > 200 µM

## Cc1ccc(S(=O)(=O)c2[nH]cc(C(=O)N[C@@H](CC(N)=O)c3cccc(Cl)c3)c2-c2c(F)ccc(F)c2C)cc1 [I-817]
  Kd: < 10 µM

## C=CC(=O)N[C@H]1CC[C@H](c2n[nH]cc2C(=O)N[C@@H](CC(N)=O)c2cccc(Cl)c2)CC1 [I-482]
  Kd: > 200 µM

## Fc1cccc(N2CC[C@@H]3CCCc4ncc(N5CCOCC5)cc4N[C@H]3C2)c1 [I-245]
  Kd: > 200 µM

## OCCC[C@@H]1C[C@H]2[C@H](CCCN2c2cccc(F)c2)N1c1cc(N2CCCCC2)ccn1 [I-830]
  Kd: 10 to 100 µM

## c1ccc2c(N3CCC[C@@H](Nc4nccc(N5CCOCC5)n4)C3)ccnc2c1 [I-35]
  Kd: 10 to 100 µM

## COCCN(C)CC1CCN(c2ccnc(N3CC[C@@H]4[C@H]3CCCN4c3cccc(F)c3)c2)CC1 [I-922]
  Kd: 10 to 100 µM

## COC(=O)C[C@H](NC(=O)c1cn[nH]c1-c1ccccc1F)c1cccc(Cl)c1 [I-757]
  Kd: > 200 µM

## NC(=O)C[C@H](NC(=O)c1cn[nH]c1-c1ccccc1F)c1ccc(Cl)cc1 [I-97]
  Kd: < 10 µM

## c1cc(N2CCOCC2)cc(N[C@@H]2CCCN(c3ncnc4c3ncn4[C@@H]3CCCCO3)C2)n1 [I-684]
  Kd: 10 to 100 µM

## NCCOCCOCCOCCOCCC1CCN(c2ccnc(N3CC[C@@H]4[C@H]3CCCN4c3cccc(F)c3)c2)CC1 [I-650]
  Kd: > 200 µM

## Cc1c(F)ccc(F)c1-c1c(C(=O)N[C@@H](CC(N)=O)c2cccc(Cl)c2)cn(C)c1C(=O)c1ccc(O)cc1 [I-1030]
  Kd: < 10 µM

## c1cnc2ccnc(N3CCC[C@@H](Nc4cc(N5CCOCC5)ccn4)C3)c2c1 [I-63]
  Kd: 100 to 200 µM

## O[C@@H](c1cccc(N2CCC[C@@H](Nc3cc(N4CCOCC4)ccn3)C2)c1)C(F)(F)F [I-772]
  Kd: 10 to 100 µM

## O=S(=O)(c1cc(N2CCOCC2)ccn1)C1CCCN(c2cccc(F)c2)C1 (stereo not drawn) [I-264]
  Kd: > 200 µM

## N#Cc1nccc(CN2CCC[C@@H](Nc3cc(N4CCOCC4)ccn3)C2)n1 [I-476]
  Kd: > 200 µM

## Fc1cccc(N2CCC[C@@H](Nc3cc(C4CCNCC4)ccn3)C2)c1 [I-93]
  Kd: > 200 µM

## NC(=O)[C@@H]1C[C@H](Nc2cc(N3CCCCC3)ccn2)CN(c2cccc(F)c2)C1 [I-1031]
  Kd: 10 to 100 µM

## N#Cc1ccccc1N1CCC[C@@H](Nc2cc(N3CCOCC3)ccn2)C1 [I-770]
  Kd: 10 to 100 µM

## OCCC[C@H]1C[C@H]2[C@H](CCCN2c2cccc(F)c2)N1c1cc(N2CCCCC2)ccn1 [I-835]
  Kd: > 200 µM

## COc1ccc(N2CCOCC2)cc1N[C@@H]1CCCN(c2cccc(F)c2)C1 [I-121]
  Kd: > 200 µM

## Oc1ccc(N2CCC[C@H]3[C@@H]2CCN3c2cc(N3CC4CC(C4)C3)ccn2)cc1 [I-718]
  Kd: < 10 µM

## c1ccc(N2CCC[C@@H]3[C@H]2CCN3c2cc(N3CC4CC(C4)C3)ccn2)cc1 [I-708]
  Kd: < 10 µM

## C[C@H]1CCCC[C@H]1c1[nH]ncc1C(=O)N[C@@H](CC(N)=O)c1cccc(Cl)c1 [I-723]
  Kd: < 10 µM

## Fc1cccc(N2CCC[C@@H](Nc3cncc(N4CCOCC4)c3)C2)c1 [I-19]
  Kd: 10 to 100 µM

## CC(=O)n1ncc(C(=O)N[C@@H](CC(N)=O)c2cccc(Cl)c2)c1-c1ccccc1F [I-175]
  Kd: > 200 µM

## Cc1sc2c(c1C)C(c1ccc(Cl)cc1)=N[C@@H](CC(=O)NCCOCCOCCOCCOCCOCCn1cc(C(=O)N[C@@H](CC(N)=O)c3cccc(Cl)c3)c(-c3ccccc3F)n1)c1nnc(C)n1-2 [I-489]
  Kd: 100 to 200 µM

## CCC1CCCN(c2ccnc(N[C@@H]3CCCN(c4cccc(F)c4)C3)c2)C1 (stereo partly drawn) [I-572]
  Kd: 10 to 100 µM

## NC(=O)Cc1ccc(F)c(-c2[nH]ncc2C(=O)N[C@@H](CC(N)=O)c2cccc(Cl)c2)c1 [I-521]
  Kd: 10 to 100 µM

## NC[C@@H]1CC[C@@H](Nc2cc(N3CCCCC3)ccn2)CN1c1cccc(F)c1 [I-1023]
  Kd: 10 to 100 µM

## O=c1cc(N2CCC[C@@H](Nc3cc(N4CCCCC4)ccn3)C2)cc[nH]1 [I-945]
  Kd: 10 to 100 µM

## OC[C@@H]1CC[C@H](Nc2cc(N3CCCCC3)ccn2)CN1c1cccc(F)c1 [I-1007]
  Kd: < 10 µM

## NC(=O)C[C@H](NC(=O)c1cn[nH]c1-c1c(F)cccc1C(F)(F)F)c1cccc(Cl)c1 [I-630]
  Kd: < 10 µM

## Fc1cccc(N2CCC[C@@H](N(CCC(F)F)c3cc(N4CCOCC4)ccn3)C2)c1 [I-290]
  Kd: > 200 µM

## CN(C)CC[C@H](c1ccc(N2CCC[C@@H](Nc3cc(N4CCOCC4)ccn3)C2)cc1)c1ccccn1 [I-783]
  Kd: > 200 µM

Source: patent publication US20260373266A1, “PROTEIN DEGRADERS AND USES THEREOF” (KYMERA THERAPEUTICS, INC., priority 2022, published 2026)
